In US20230391763A1, “MODULATORS OF THE INTEGRATED STRESS RESPONSE PATHWAY” (Evotec International GmbH, priority 2020, published 2023):
pIC50: −log10 of the molar value.

Tested on: Tunicamycin induced ISR (ATF4 signal ratio between nucleus and cytoplasm) in wild-type HEK293 cells
Experiment: HEK-ATF4 High Content Imaging assay
Type: cell-based
Conditions: Homo sapiens, prevention of Tunicamycin induced ISR, 6 h incubation, ATF4 immunofluorescence nucleus/cytoplasm ratio
Procedure: HEK-ATF4 High Content Imaging Assay
Example compounds were tested in the HEK-ATF4 High Content Imaging assay to assess their pharmacological potency to prevent Tunicamycin induced ISR. Wild-type HEK293 cells were plated in 384-well imaging assay plates at a density of 12,000 cells per well in growth medium (containing DMEM/F12, 10% FBS, 2 mM L-Glutamine, 100 U/mL Penicillin—100 μg/mL Streptomycin) and incubated at 37° C., 5% CO2. 24 h later, the medium was changed to 50 μL assay medium per well (DMEM/F12, 0.3% FBS, 2 mM L-Glutamine, 100 U/mL Penicillin—100 μg/mL Streptomycin). Example compounds were serially diluted in DMSO, spotted into intermediate plates and prediluted with assay medium containing 3.3 μM Tunicamycin to give an 11-fold excess of final assay concentration. In addition to the example compound testing area, the plates also contained multiples of control wells for assay normalization purposes, wells containing Tunicamycin but no example compounds (High control), as well as wells containing neither example compound nor Tunicamycin (Low control). The assay was started by transferring 5 μL from the intermediate plate into the assay plates, followed by incubation for 6 h at 37° C., 5% CO2. Subsequently, cells were fixed (4% PFA in PBS, 20 min at r.t.) and submitted to indirect ATF4 immunofluorescence staining (primary antibody rabbit anti ATF4, clone D4B8, Cell Signaling Technologies; secondary antibody Alexa Fluor 488 goat anti-rabbit IgG (H+L), Thermofisher Scientific). Nuclei were stained using Hoechst dye (Thermofisher Scientific), and plates were imaged on an Opera Phenix High Content imaging platform equipped with 405 nm and 488 nm excitation. Finally, images were analyzed using script based algorithms. The main readout HEK-ATF4 monitored the ATF4 signal ratio between nucleus and cytoplasm. Tunicamycin induced an increase in the overall ATF4 ratio signal, which was prevented by ISR modulating example compounds. In addition, HEK-CellCount readout was derived from counting the number of stained nuclei corresponding to healthy cells. This readout served as an internal toxicity control.

SMILES | pIC50
O=C(N[C@H]1CC[C@H](c2nnc(OCCOC(F)(F)F)o2)NC1)c1ccc2cc(C(F)(F)F)ccc2n1 [Example 2, N-[(3S,6R)-6-{5-[2-(trifluoromethoxy)ethoxy]-1,3,4-oxadiazol-2-yl}piperidin-3-yl]-6-(trifluoromethyl)quinoline-2-carboxamide] | 6.30 to 9.00
O=C(N[C@H]1CC[C@H](c2nnc(OCCOC(F)(F)F)o2)NC1)c1cnc2cc(Cl)ccc2c1 [Example 3, 7-chloro-N-[(3S,6R)-6-{5-[2-(trifluoromethoxy)ethoxy]-1,3,4-oxadiazol-2-yl}piperidin-3-yl]quinoline-3-carboxamide] | 6.30 to 9.00
O=C(N[C@H]1CC[C@H](c2nnc(OCCOC(F)(F)F)o2)NC1)C1=Cc2ccc(Cl)cc2OC1 [Example 4, 7-chloro-N-[(3S,6R)-6-{5-[2-(trifluoromethoxy)ethoxy]-1,3,4-oxadiazol-2-yl}piperidin-3-yl]-2H-chromene-3-carboxamide] | 6.30 to 9.00
O=C(N[C@H]1CC[C@H](c2nnc(OCCOC(F)(F)F)o2)NC1)c1cc2ccc(Cl)cc2cn1 [Example 5, 7-chloro-N-[(3S,6R)-6-{5-[2-(trifluoromethoxy)ethoxy]-1,3,4-oxadiazol-2-yl}piperidin-3-yl]isoquinoline-3-carboxamide] | 5.70 to 6.30
O=C(N[C@H]1CC[C@H](c2nnc(OCCOC(F)(F)F)o2)NC1)c1ncc2cc(Cl)ccc2n1 [Example 6, 6-chloro-N-[(3S,6R)-6-{5-[2-(trifluoromethoxy)ethoxy]-1,3,4-oxadiazol-2-yl}piperidin-3-yl]quinazoline-2-carboxamide] | 6.30 to 9.00
O=C(N[C@H]1CC[C@H](c2nnc(OCCOC(F)(F)F)o2)NC1)c1cnc2ccc(Cl)cc2c1 [Example 8, 6-chloro-N-[(3S,6R)-6-{5-[2-(trifluoromethoxy)ethoxy]-1,3,4-oxadiazol-2-yl}piperidin-3-yl]quinoline-3-carboxamide] | 6.30 to 9.00
O=C(N[C@H]1CC[C@H](c2nnc(OCCOC(F)(F)F)o2)NC1)c1cc2cc(Cl)ccc2o1 [Example 9, 5-chloro-N-[(3S,6R)-6-{5-[2-(trifluoromethoxy)ethoxy]-1,3,4-oxadiazol-2-yl}piperidin-3-yl]-1-benzofuran-2-carboxamide] | 6.30 to 9.00
O=C(N[C@H]1CC[C@H](c2nnc(OCCOC(F)(F)F)o2)NC1)c1ccc2cc(Cl)cnc2c1 [Example 10, 3-chloro-N-[(3S,6R)-6-{5-[2-(trifluoromethoxy)ethoxy]-1,3,4-oxadiazol-2-yl}piperidin-3-yl]quinoline-7-carboxamide] | 5.70 to 6.30
O=C(N[C@H]1CC[C@H](c2nnc(OCCOC(F)(F)F)o2)NC1)c1cnc2cc(Cl)c(F)cc2c1 [Example 11, 7-chloro-6-fluoro-N-[(3S,6R)-6-{5-[2-(trifluoromethoxy)ethoxy]-1,3,4-oxadiazol-2-yl}piperidin-3-yl]quinoline-3-carboxamide] | 6.30 to 9.00
O=C(N[C@H]1CC[C@H](c2nnc(OCCOC(F)(F)F)o2)NC1)c1cc2cc(Cl)ccn2n1 [Example 12, 5-chloro-N-[(3S,6R)-6-{5-[2-(trifluoromethoxy)ethoxy]-1,3,4-oxadiazol-2-yl}piperidin-3-yl]pyrazolo[1,5-a]pyridine-2-carboxamide] | 5.70 to 6.30
O=C(N[C@H]1CC[C@H](c2nnc(OCCOC(F)(F)F)o2)NC1)c1ccc(OCC(F)(F)F)nc1 [Example 13, 6-(2,2,2-trifluoroethoxy)-N-[(3S,6R)-6-{5-[2-(trifluoromethoxy)ethoxy]-1,3,4-oxadiazol-2-yl}piperidin-3-yl]pyridine-3-carboxamide] | 4.82 to 5.70
O=C(N[C@H]1CC[C@H](c2nnc(OCCOC(F)(F)F)o2)NC1)c1ccc2nc(C(F)(F)F)ccc2c1 [Example 14, N-[(3S,6R)-6-{5-[2-(trifluoromethoxy)ethoxy]-1,3,4-oxadiazol-2-yl}piperidin-3-yl]-2-(trifluoromethyl)quinoline-6-carboxamide] | 4.82 to 5.70
O=C(N[C@H]1CC[C@H](c2nnc(OCCOC(F)(F)F)o2)NC1)c1cn2cc(Cl)cc2cn1 [Example 15, 7-chloro-N-[(3S,6R)-6-{5-[2-(trifluoromethoxy)ethoxy]-1,3,4-oxadiazol-2-yl}piperidin-3-yl]pyrrolo[1,2-a]pyrazine-3-carboxamide] | 4.82 to 5.70
O=C(N[C@H]1CC[C@H](c2nnc(OCCOC(F)(F)F)o2)NC1)c1ccc(OC(F)(F)F)nc1 [Example 16, 6-(trifluoromethoxy)-N-[(3S,6R)-6-{5-[2-(trifluoromethoxy)ethoxy]-1,3,4-oxadiazol-2-yl}piperidin-3-yl]pyridine-3-carboxamide] | 5.70 to 6.30
O=C(N[C@H]1CC[C@H](c2nnc(OCCOC(F)(F)F)o2)NC1)c1ccc(Cl)c(Cl)c1 [Example 17, 3,4-dichloro-N-[(3S,6R)-6-{5-[2-(trifluoromethoxy)ethoxy]-1,3,4-oxadiazol-2-yl}piperidin-3-yl]benzamide] | 5.70 to 6.30
O=C(N[C@H]1CC[C@H](c2nnc(OCCOC(F)(F)F)o2)NC1)c1ccc(Cl)cc1 [Example 18, 4-chloro-N-[(3S,6R)-6-{5-[2-(trifluoromethoxy)ethoxy]-1,3,4-oxadiazol-2-yl}piperidin-3-yl]benzamide] | 4.82 to 5.70
O=C(N[C@H]1CC[C@H](c2nnc(OCCOC(F)(F)F)o2)NC1)c1cnc2c(F)c(Cl)ccc2c1 [Example 19, 7-chloro-8-fluoro-N-[(3S,6R)-6-{5-[2-(trifluoromethoxy)ethoxy]-1,3,4-oxadiazol-2-yl}piperidin-3-yl]quinoline-3-carboxamide] | 6.30 to 9.00
O=C(N[C@H]1CC[C@H](c2nnc(OCCOC(F)(F)F)o2)NC1)c1cc2cc(Cl)ccn2c1 [Example 20, 7-chloro-N-[(3S,6R)-6-{5-[2-(trifluoromethoxy)ethoxy]-1,3,4-oxadiazol-2-yl}piperidin-3-yl]indolizine-2-carboxamide] | 6.30 to 9.00
O=C(N[C@H]1CC[C@H](c2nnc(OCCOC(F)(F)F)o2)NC1)c1cc2ccc(Cl)cn2c1 [Example 21, 6-chloro-N-[(3S,6R)-6-{5-[2-(trifluoromethoxy)ethoxy]-1,3,4-oxadiazol-2-yl}piperidin-3-yl]indolizine-2-carboxamide] | 6.30 to 9.00
Cn1c(C(=O)N[C@H]2CC[C@H](c3nnc(OCCOC(F)(F)F)o3)NC2)cc2cc(C(F)(F)F)ccc21 [Example 22, 1-methyl-N-[(3S,6R)-6-{5-[2-(trifluoromethoxy)ethoxy]-1,3,4-oxadiazol-2-yl}piperidin-3-yl]-5-(trifluoromethyl)-1H-indole-2-carboxamide] | 5.70 to 6.30
O=C(N[C@H]1CC[C@H](c2nnc(OCCOC(F)(F)F)o2)NC1)c1cccc(Cl)c1 [Example 23, 3-chloro-N-[(3S,6R)-6-{5-[2-(trifluoromethoxy)ethoxy]-1,3,4-oxadiazol-2-yl}piperidin-3-yl]benzamide] | 4.82 to 5.70
Cc1cc(C)cc(C(=O)N[C@H]2CC[C@H](c3nnc(OCCOC(F)(F)F)o3)NC2)c1 [Example 24, 3,5-dimethyl-N-[(3S,6R)-6-{5-[2-(trifluoromethoxy)ethoxy]-1,3,4-oxadiazol-2-yl}piperidin-3-yl]benzamide] | 4.82 to 5.70
Cc1ccc(C(=O)N[C@H]2CC[C@H](c3nnc(OCCOC(F)(F)F)o3)NC2)cc1C [Example 25, 3,4-dimethyl-N-[(3S,6R)-6-{5-[2-(trifluoromethoxy)ethoxy]-1,3,4-oxadiazol-2-yl}piperidin-3-yl]benzamide] | 4.82 to 5.70
Cc1cc(C(=O)N[C@H]2CC[C@H](c3nnc(OCCOC(F)(F)F)o3)NC2)sc1C [Example 26, 4,5-dimethyl-N-[(3S,6R)-6-{5-[2-(trifluoromethoxy)ethoxy]-1,3,4-oxadiazol-2-yl}piperidin-3-yl]thiophene-2-carboxamide] | 4.82 to 5.70
Cc1ccc(C(=O)N[C@H]2CC[C@H](c3nnc(OCCOC(F)(F)F)o3)NC2)cc1 [Example 27, 4-methyl-N-[(3S,6R)-6-{5-[2-(trifluoromethoxy)ethoxy]-1,3,4-oxadiazol-2-yl}piperidin-3-yl]benzamide] | 4.82 to 5.70
O=C(N[C@H]1CC[C@H](c2nnc(OCCOC(F)(F)F)o2)NC1)c1ccc(OC(F)(F)F)cc1 [Example 29, 4-(trifluoromethoxy)-N-[(3S,6R)-6-{5-[2-(trifluoromethoxy)ethoxy]-1,3,4-oxadiazol-2-yl}piperidin-3-yl]benzamide] | 6.30 to 9.00
O=C(N[C@H]1CC[C@H](c2nnc(OCCOC(F)(F)F)o2)NC1)c1ccc2c(c1)OC(F)(F)O2 [Example 30, 2,2-difluoro-N-[(3S,6R)-6-{5-[2-(trifluoromethoxy)ethoxy]-1,3,4-oxadiazol-2-yl}piperidin-3-yl]-2H-1,3-benzodioxole-5-carboxamide] | 5.70 to 6.30
Cc1cc(C(=O)N[C@H]2CC[C@H](c3nnc(OCCOC(F)(F)F)o3)NC2)ccc1Cl [Example 31, 4-chloro-3-methyl-N-[(3S,6R)-6-{5-[2-(trifluoromethoxy)ethoxy]-1,3,4-oxadiazol-2-yl}piperidin-3-yl]benzamide] | 4.82 to 5.70
